Patent US12410166B2, “Sulfonylamidine substituted compounds and their use as beta-lactamase inhibitors” (NINGXIA ACADEMY OF AGRICULTURE AND FORESTRY SCIENCES, priority 2021, dated 2025)
Structures can show the parent of a compound that is named as a salt.

Key:
Test in all cases: MIC by broth microdilution (antibacterial and synergistic activity)
Assay type in all cases: cell-based
[1] = test system: A. baumannii 19606 (strain 8, OXA-24); conditions: Acinetobacter baumannii, read-out: Antibacterial activity, MIC, inhibitor Alone
Method in brief: (§1)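 Test agents were tested singly or as pairs, each inhibitor kept at 4 mg/L while meropenem or imipenem was serially diluted in cation-adjusted Mueller-Hinton broth. Bacteria were added at roughly 5×10^5 CFU/mL and incubated 18-24 hours at 37° C before visual MIC reading.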

[2] = test system: A. baumannii clinical isolate (strain 7, OXA-23, OXA-40); conditions: Acinetobacter baumannii; strain 7 (OXA-23/40); compound alone, no antibiotic; read-out: Antibacterial activity, MIC, inhibitor Alone
Method in brief: as §1

[3] = test system: E. cloacae 700323 (strain 6, AmpC); conditions: Enterobacter cloacae; strain 6 (AmpC); compound alone, no antibiotic; read-out: Antibacterial activity, MIC, inhibitor Alone
Method in brief: as §1

[4] = test system: E. cloacae clinical isolate (strain 5, P99); conditions: Enterobacter cloacae; strain 5 (P99); compound alone, no antibiotic; read-out: Antibacterial activity, MIC, inhibitor Alone
Method in brief: as §1

[5] = test system: E. coli 8739 (strain 2, CTX-M15); conditions: Escherichia coli, read-out: Antibacterial activity, MIC, inhibitor Alone
Method in brief: as §1

[6] = test system: E. coli clinical isolate (strain 1, TEM-1); conditions: Escherichia coli; strain 1 (TEM-1); compound alone, no antibiotic; read-out: Antibacterial activity, MIC, inhibitor Alone
Method in brief: as §1

[7] = test system: K. pneumoniae 700603 (strain 4, KPC-3, TEM-1); conditions: Klebsiella pneumoniae; strain 4 (KPC-3, TEM-1); compound alone, no antibiotic; read-out: Antibacterial activity, MIC, inhibitor Alone
Method in brief: as §1

[8] = test system: K. pneumoniae clinical isolate (strain 3, SHV-1); conditions: Klebsiella pneumoniae; strain 3 (SHV-1); compound alone, no antibiotic; read-out: Antibacterial activity, MIC, inhibitor Alone
Method in brief: as §1

[9] = test system: P. aeruginosa 9027 (strain 10, AmpC); conditions: Pseudomonas aeruginosa; strain 10 (AmpC); compound alone, no antibiotic; read-out: Antibacterial activity, MIC, inhibitor Alone
Method in brief: as §1

[10] = test system: P. aeruginosa clinical isolate (strain 9, KPC-2); conditions: Pseudomonas aeruginosa; strain 9 (KPC-2); compound alone, no antibiotic; read-out: Antibacterial activity, MIC, inhibitor Alone
Method in brief: as §1

Measured: MIC

COc1ccc(S(=O)(=O)NC(=N)[C@@H]2CC[C@@H]3CN2C(=O)N3OS(=O)(=O)O)nc1 [Ex. 22, (2S,5R)-2-(N-((5-methoxypyridin-2-yl)sulfonyl)carbamimidoyl)-7-oxo-1,6-diazabicyclo[3.2.1]octan-6-yl hydrogen sulfate]
> 64 µg/mL: all assays above

N=C(NS(=O)(=O)c1ccc(F)cn1)[C@@H]1CC[C@@H]2CN1C(=O)N2OS(=O)(=O)O [Ex. 23, (2S,5R)-2-(N-((5-fluoropyridin-2-yl)sulfonyl)carbamimidoyl)-7-oxo-1,6-diazabicyclo[3.2.1]octan-6-yl hydrogen sulfate]
> 64 µg/mL: all assays above

N=C(NS(=O)(=O)c1cnccn1)[C@@H]1CC[C@@H]2CN1C(=O)N2OS(=O)(=O)O [Ex. 24, (2S,5R)-7-oxo-2-(N-(pyrazin-2-ylsulfonyl)carbamimidoyl)-1,6-diazabicyclo[3.2.1]octan-6-yl hydrogen sulfate]
> 64 µg/mL: all assays above

O=C(NC1CCNCC1)[C@@H]1CC[C@@H]2CN1C(=O)N2OS(=O)(=O)O [REL, relebactam, reference compound]
> 64 µg/mL: all assays above
